The molecules below were run against PARP7 (Homo sapiens (Human), UniProt Q7Z3E1) (assay: Enzymatic assay for inhibition of PARP7: TR-FRET displacement of biotinylated Probe A from the TIPARP active site). Settings: Table A-1.
Format: binding
In short: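 TR-FRET, ex 320 nm / em 615 and 665 nm. Signal ratio reflects complex formation.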

Sequence of PARP7 (Q7Z3E1 whole entry): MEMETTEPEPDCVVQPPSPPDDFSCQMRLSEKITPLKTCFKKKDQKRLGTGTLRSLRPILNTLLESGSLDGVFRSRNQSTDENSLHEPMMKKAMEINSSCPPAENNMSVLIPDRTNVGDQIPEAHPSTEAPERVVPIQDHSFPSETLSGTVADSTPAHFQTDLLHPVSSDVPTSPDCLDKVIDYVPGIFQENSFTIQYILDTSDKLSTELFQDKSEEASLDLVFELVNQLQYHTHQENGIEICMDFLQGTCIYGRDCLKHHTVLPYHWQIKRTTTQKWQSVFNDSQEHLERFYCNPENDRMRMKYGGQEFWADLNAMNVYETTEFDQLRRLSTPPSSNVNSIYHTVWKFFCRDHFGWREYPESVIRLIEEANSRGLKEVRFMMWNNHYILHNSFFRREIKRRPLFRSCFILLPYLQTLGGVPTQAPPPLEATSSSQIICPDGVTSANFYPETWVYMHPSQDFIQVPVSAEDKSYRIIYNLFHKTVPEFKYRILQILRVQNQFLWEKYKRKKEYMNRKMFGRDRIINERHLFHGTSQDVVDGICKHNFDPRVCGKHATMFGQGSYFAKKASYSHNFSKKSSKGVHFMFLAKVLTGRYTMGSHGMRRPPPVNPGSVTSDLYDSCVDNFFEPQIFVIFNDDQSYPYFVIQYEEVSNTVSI

Compound | IC50 [nM]
O=c1[nH]ncc(N2Cc3ccc(Cl)nc3C2)c1C(F)(F)F [Example 304, 5-(2-Chloro-5,7-dihydro-6H-pyrrolo[3,4-b]pyridin-6-yl)-4-(trifluoromethyl)pyridazin-3(2H)-one] | < 100
O=c1[nH]ncc(N2Cc3cccc(N4CCC(O)C4)c3C2)c1C(F)(F)F (stereo not shown) [Example 305, 5-(4-(3-Hydroxypyrrolidin-1-yl)isoindolin-2-yl)-4-(trifluoromethyl)pyridazin-3(2H)-one 2,2,2-trifluoroacetic acid] | < 100
NC1CCN(c2cccc3c2CN(c2cn[nH]c(=O)c2C(F)(F)F)C3)C1 (stereo not shown) [Example 306, 5-(4-(3-Aminopyrrolidin-1-yl)isoindolin-2-yl)-4-(trifluoromethyl)pyridazin-3(2H)-one] | < 100
O=c1[nH]ncc(N2Cc3cccc(NC4CCCOC4)c3C2)c1C(F)(F)F (stereo not shown) [Example 307, 5-(4-((Tetrahydro-2H-pyran-3-yl)amino)isoindolin-2-yl)-4-(trifluoromethyl)pyridazin-3(2H)-one] | 100 to 1000
COc1cccc2c1CN(c1cn[nH]c(=O)c1C(F)(F)F)C2C (stereo not shown) [Example 308, 5-(4-Methoxy-1-methylisoindolin-2-yl)-4-(trifluoromethyl)pyridazin-3(2H)-one] | 100 to 1000
COc1cccc2c1C(C)N(c1cn[nH]c(=O)c1C(F)(F)F)C2 (stereo not shown) [Example 309, 5-(7-Methoxy-1-methylisoindolin-2-yl)-4-(trifluoromethyl)pyridazin-3(2H)-one] | 100 to 1000
CCC1c2ccccc2CN1c1cn[nH]c(=O)c1C(F)(F)F (stereo not shown) [Example 310, 5-(1-Ethylisoindolin-2-yl)-4-(trifluoromethyl)pyridazin-3(2H)-one] | ≥ 1000
CN1CCN(c2cccc3c2CN(c2cn[nH]c(=O)c2C(F)(F)F)C3)CC1 [Example 314, 5-(4-(4-Methylpiperazin-1-yl)isoindolin-2-yl)-4-(trifluoromethyl)pyridazin-3(2H)-one] | 100 to 1000
COc1cc2c(cc1F)CN(c1cn[nH]c(=O)c1C(F)(F)F)C2C (stereo not shown) [Example 315, 5-(5-Fluoro-6-methoxy-1-methylisoindolin-2-yl)-4-(trifluoromethyl)pyridazin-3(2H)-one] | 100 to 1000
NCCOc1ccc2c(n1)CN(c1cn[nH]c(=O)c1C(F)(F)F)C2 [Example 317, 5-(2-(2-Aminoethoxy)-5,7-dihydro-6H-pyrrolo[3,4-b]pyridin-6-yl)-4-(trifluoromethyl)pyridazin-3(2H)-one formic acid] | 100 to 1000
Cc1ccc2c(n1)CN(c1cn[nH]c(=O)c1C(F)(F)F)C2 [Example 320, 5-(2-Methyl-5,7-dihydro-6H-pyrrolo[3,4-b]pyridin-6-yl)-4-(trifluoromethyl)pyridazin-3(2H)-one] | < 100
COc1cnc2c(c1)CN(c1cn[nH]c(=O)c1C(F)(F)F)C2 [Example 326, 5-(3-Methoxy-5,7-dihydro-6H-pyrrolo[3,4-b]pyridin-6-yl)-4-(trifluoromethyl)pyridazin-3(2H)-one] | < 100
N#CCC1c2ccccc2CN1c1cn[nH]c(=O)c1C(F)(F)F (stereo not shown) [Example 330, 2-(2-(6-Oxo-5-(trifluoromethyl)-1,6-dihydropyridazin-4-yl)isoindolin-1-yl)acetonitrile] | ≥ 1000
COc1ccnc2c1CN(c1cn[nH]c(=O)c1C(F)(F)F)C2 [Example 337, 5-(4-Methoxy-5,7-dihydro-6H-pyrrolo[3,4-b]pyridin-6-yl)-4-(trifluoromethyl)pyridazin-3(2H)-one] | < 100
O=c1[nH]ncc(N2Cc3cccc(CNc4ccncc4)c3C2)c1C(F)(F)F [Example 339, 5-(4-((Pyridin-4-ylamino)methyl)isoindolin-2-yl)-4-(trifluoromethyl)pyridazin-3(2H)-one] | < 100
N#Cc1ccc(N2CCN(C(=O)c3cccc(OCC4c5ccccc5CN4c4cn[nH]c(=O)c4C(F)(F)F)c3)CC2)nc1 (stereo not shown) [Example 340, 6-(4-(3-((2-(6-Oxo-5-(trifluoromethyl)-1,6-dihydropyridazin-4-yl)isoindolin-1-yl)methoxy)benzoyl)piperazin-1-yl)nicotinonitrile] | < 100

Continued, values first:

IC50 [nM] | Compound
100 to 1000 | COCCOc1ccc2c(n1)CN(c1cn[nH]c(=O)c1C(F)(F)F)C2 [Example 311, 5-(2-(2-Methoxyethoxy)-5,7-dihydro-6H-pyrrolo[3,4-b]pyridin-6-yl)-4-(trifluoromethyl)pyridazin-3(2H)-one]
100 to 1000 | O=c1[nH]ncc(N2Cc3ccc(OCCO)nc3C2)c1C(F)(F)F [Example 312, 5-(2-(2-Hydroxyethoxy)-5,7-dihydro-6H-pyrrolo[3,4-b]pyridin-6-yl)-4-(trifluoromethyl)pyridazin-3(2H)-one]
< 100 | O=c1[nH]ncc(N2Cc3ccc(OCc4cccnc4)nc3C2)c1C(F)(F)F [Example 313, 5-(2-(Pyridin-3-ylmethoxy)-5,7-dihydro-6H-pyrrolo[3,4-b]pyridin-6-yl)-4-(trifluoromethyl)pyridazin-3(2H)-one]
100 to 1000 | O=c1[nH]ncc(N2Cc3ccc(OCCN4CCOCC4)nc3C2)c1C(F)(F)F [Example 316, 5-(2-(2-Morpholinoethoxy)-5,7-dihydro-6H-pyrrolo[3,4-b]pyridin-6-yl)-4-(trifluoromethyl)pyridazin-3(2H)-one]
100 to 1000 | CNCCOc1ccc2c(n1)CN(c1cn[nH]c(=O)c1C(F)(F)F)C2 [Example 318, 5-(2-(2-(Methylamino)ethoxy)-5,7-dihydro-6H-pyrrolo[3,4-b]pyridin-6-yl)-4-(trifluoromethyl)pyridazin-3(2H)-one]
100 to 1000 | CN(C)CCOc1ccc2c(n1)CN(c1cn[nH]c(=O)c1C(F)(F)F)C2 [Example 319, 5-(2-(2-(Dimethylamino)ethoxy)-5,7-dihydro-6H-pyrrolo[3,4-b]pyridin-6-yl)-4-(trifluoromethyl)pyridazin-3(2H)-one]
< 100 | O=c1[nH]ncc(N2Cc3ccc(OCc4ccncc4)nc3C2)c1C(F)(F)F [Example 321, 5-(2-(Pyridin-4-ylmethoxy)-5,7-dihydro-6H-pyrrolo[3,4-b]pyridin-6-yl)-4-(trifluoromethyl)pyridazin-3(2H)-one]
100 to 1000 | NCc1ccc2c(c1)CN(c1cn[nH]c(=O)c1C(F)(F)F)C2 [Example 322, 5-(5-(Aminomethyl)isoindolin-2-yl)-4-(trifluoromethyl)pyridazin-3(2H)-one]
< 100 | O=c1[nH]ncc(N2Cc3cc(OCCO)cc(F)c3C2)c1C(F)(F)F [Example 323, 5-(4-Fluoro-6-(2-hydroxyethoxy)isoindolin-2-yl)-4-(trifluoromethyl)pyridazin-3(2H)-one]
100 to 1000 | O=c1[nH]ncc(N2Cc3ccc(OC4CCNCC4)nc3C2)c1C(F)(F)F [Example 324, 5-(2-(Piperidin-4-yloxy)-5,7-dihydro-6H-pyrrolo[3,4-b]pyridin-6-yl)-4-(trifluoromethyl)pyridazin-3(2H)-one]
100 to 1000 | O=c1[nH]ncc(N2Cc3cc(OCCN4CCOCC4)cnc3C2)c1C(F)(F)F [Example 325, 5-(3-(2-Morpholinoethoxy)-5,7-dihydro-6H-pyrrolo[3,4-b]pyridin-6-yl)-4-(trifluoromethyl)pyridazin-3(2H)-one]
100 to 1000 | NCc1cc2c(cc1F)CN(c1cn[nH]c(=O)c1C(F)(F)F)C2 [Example 327, 5-(5-(Aminomethyl)-6-fluoroisoindolin-2-yl)-4-(trifluoromethyl)pyridazin-3(2H)-one]
< 100 | CN(Cc1ccncc1)Cc1cccc2c1CN(c1cn[nH]c(=O)c1C(F)(F)F)C2 [Example 328, 5-(4-((Methyl(pyridin-4-ylmethyl)amino)methyl)isoindolin-2-yl)-4-(trifluoromethyl)pyridazin-3(2H)-one]
< 100 | O=c1[nH]ncc(N2Cc3cccc(CNCc4ccncc4)c3C2)c1C(F)(F)F [Example 329, 5-(4-(((Pyridin-4-ylmethyl)amino)methyl)isoindolin-2-yl)-4-(trifluoromethyl)pyridazin-3(2H)-one]
< 100 | CN(C)CCOc1cc(F)c2c(c1)CN(c1cn[nH]c(=O)c1C(F)(F)F)C2 [Example 331, 5-(6-(2-(Dimethylamino)ethoxy)-4-fluoroisoindolin-2-yl)-4-(trifluoromethyl)pyridazin-3(2H)-one]
100 to 1000 | COc1ccc2c(c1)C(C)N(c1cn[nH]c(=O)c1C(F)(F)F)C2 (stereo not shown) [Example 332, 5-(6-Methoxy-1-methylisoindolin-2-yl)-4-(trifluoromethyl)pyridazin-3(2H)-one]
< 100 | CC(=O)N1CCC(Oc2ccc3c(n2)CN(c2cn[nH]c(=O)c2C(F)(F)F)C3)CC1 [Example 333, 5-(2-((1-Acetylpiperidin-4-yl)oxy)-5,7-dihydro-6H-pyrrolo[3,4-b]pyridin-6-yl)-4-(trifluoromethyl)pyridazin-3(2H)-one]
100 to 1000 | NCCOc1cnc2c(c1)CN(c1cn[nH]c(=O)c1C(F)(F)F)C2 [Example 334, 5-(3-(2-Aminoethoxy)-5,7-dihydro-6H-pyrrolo[3,4-b]pyridin-6-yl)-4-(trifluoromethyl)pyridazin-3(2H)-one]
100 to 1000 | CN(C)CCOc1cnc2c(c1)CN(c1cn[nH]c(=O)c1C(F)(F)F)C2 [Example 335, 5-(3-(2-(Dimethylamino)ethoxy)-5,7-dihydro-6H-pyrrolo[3,4-b]pyridin-6-yl)-4-(trifluoromethyl)pyridazin-3(2H)-one]
< 100 | O=c1[nH]ncc(N2Cc3cc(OCc4cccnc4)cnc3C2)c1C(F)(F)F [Example 336, 5-(3-(Pyridin-3-ylmethoxy)-5,7-dihydro-6H-pyrrolo[3,4-b]pyridin-6-yl)-4-(trifluoromethyl)pyridazin-3(2H)-one]
< 100 | CC(=O)N1CCC(Oc2ccnc3c2CN(c2cn[nH]c(=O)c2C(F)(F)F)C3)CC1 [Example 338, 5-(4-((1-Acetylpiperidin-4-yl)oxy)-5,7-dihydro-6H-pyrrolo[3,4-b]pyridin-6-yl)-4-(trifluoromethyl)pyridazin-3(2H)-one]
